The subject of data set [1] is E. coli (ATCC 25922). In words: Broth microdilution MIC assay, E. coli. The note with it: for MIC: Escherichia coli.
Method: (§2) The concentration of compound required to visibly stop the growth of bacteria is known as minimum inhibitory concentration (MIC). Different concentrations of the compounds are tested for the exact same number of bacteria, and the growth is monitored with time.
(§3) Bacterial strains were purchased from the American Type Culture Collection (ATCC) for the studies.
(§4) The MIC assay procedure follows the guidelines set by the Clinical Laboratory Sciences Institute (CLSI).
(§5) To do this, bacteria were transferred from pure agar culture, aseptically transferred in 5 mL of Cation-Adjusted Mueller-Hinton Broth (CAMHB). The broth was incubated overnight at 35° C. to stationary phase to achieve a turbidity suspension. A spectrophotometer (SpectraMax ID5) was used to measure the turbidity (optical density—OD at 625 nm). The inoculum was prepared by adjusting the turbidity of overnight culture to 0.5 McFarland, which is equal to the defined number of bacteria 1×10^8 CFU/ml.
(§6) (b) Compound Dilution: All compounds used in the study were dissolved in sterile ultra-pure DMSO (VWR International, PA, USA) and maintained at −80° C. Stock solution of the compound was freshly prepared the day of use or is prepared from a frozen stock solution stored at −80° C. […] The compound solution was prepared at a desired concentration in DMSO, and 1/10 dilution was performed in a sterile CAMHB medium. This 10-fold dilution of stock solution was used for a 2-fold serial dilution in a 96-well plate to observe an inhibitory effect of the compound on bacterial growth. 100 μL of diluted drug solution was transferred to a first column of the 96-well plate. 50 μL of sterile CAMHB was transferred to each well from well 2 to well 12. Next, 50 μL was removed from well 1 and added to well 2. The contents from well 2 were mixed by pipetting up and down. Next, 50 µL were removed from well 2 and added to well 3. This process was continued till well 11 is reached. 50 μL was discarded from the well 11. Each compound concentration was tested in triplicate.
(§7) (c) Inoculation of 96-well plate: The same number of bacteria (1×10^5 CFU/mL) were prepared after 150-fold dilution of 0.5 McFarland inoculum and used to add in the wells of different drug concentrations. 50 μL of working inoculum was carefully added to each well, except the sterility well 12. Mixing is performed by gently flushing the inoculum in and out of the pipette tip four or five times, avoiding splashing and bubble formation.
(§8) (d) Incubation: Plates were incubated at 35° C. for 24 hours without shaking or agitation.
(§9) (e) Determination of MIC: After 18-24 hours of incubation, the plates were read for MIC. SpectraMax iD5 microplate reader was used to measure turbidity at different time points. Turbidity (OD) increases as the bacteria grow over time.
Data set [2] concerns S. aureus (ATCC 29213). In words: Broth microdilution MIC assay, S. aureus. As to conditions: for MIC: Staphylococcus aureus; for concentration at which activity is shown / MIC (bacterial growth inhibition): S. aureus. (Dilution methods test growth across graded concentrations, often in twofold steps.)
Method: as §2, §3, §4, §5, §6, §7, §8, §9
Data set [3] has as its system MRSA (ATCC 43300). Description: Minimum bactericidal concentration (MBC) assay, MRSA. Format: cell-based. As to conditions: Staphylococcus aureus. As to the method: (§1) (f) Determination of MBC: MBC was determined by sampling all the macroscopically clear wells. Before sampling, the wells were gently mixed by flushing them with a pipette, and a 5 μL was removed and placed on an agar plate suitable for the growth of the microbe being tested. The agar plate was divided into three parts to test three trials of a single concentration. The sample was allowed to be absorbed into the agar for ˜30 minutes. The plates were then incubated for 24 hours at 37° C. After incubation, the plates were examined to determine the compound concentration at which 99.9% killing was achieved.

For data set [4], the system named is S. aureus (ATCC 29213). Description: Minimum bactericidal concentration (MBC) assay, S. aureus. The format is cell-based. As to conditions: Staphylococcus aureus, ATCC29213, 24 h, read-out: MBC (kills bacteria). As to the method: as §1
Data set [5] has as its system MRSA: S. aureus resistant to methicillin and oxacillin (ATCC 43300). In words: Broth microdilution MIC assay, MRSA. As to conditions: for MIC: Staphylococcus aureus, ATCC43300|MRSA, read-out: MIC (bacterial growth inhibition).
Method: as §2, §3, §4, §5, §6, §7, §8, §9
Data set [6] deals with E. faecalis (ATCC 29212). Description: Broth microdilution MIC assay, E. faecalis. As to conditions: Enterococcus faecalis, ATCC29212, read-out: MIC (bacterial growth inhibition).
Method: as §2, §3, §4, §5, §6, §7, §8, §9
Data set [7] concerns VREF: E. faecalis resistant to vancomycin (ATCC 51299). Description: Broth microdilution MIC assay, VREF. As to conditions: Enterococcus faecalis, ATCC51299, read-out: MIC (bacterial growth inhibition).
Method: as §2, §3, §4, §5, §6, §7, §8, §9
In data set [8] the test system is E. faecalis (ATCC 29212). Description: Minimum bactericidal concentration (MBC) assay, E. faecalis. The format is cell-based, Enterococcus faecalis. As to the method:
as §1

Data set [9] has as its system engineered Salmonella typhimurium strain (umuC, β-galactosidase).
From the text: The EBPI UMU-ChromoTest™ assay is used for the detection and quantification of genotoxicity of compounds and is based on the International Organization for Standardization protocol ISO 13829. The UMU-ChromoTest™ assay utilizes a native bacterial mechanism for the detection of compound genotoxicity. The bacteria used for the assay is an engineered Salmonella typhimurium strain developed to include a gene coding for the β-galactosidase (β-gal) enzyme tethered to the umuC, a damage response gene. DNA damage activates the SOS system to transcribe β-gal proportional to the level of SOS induction. The UMU-ChromoTest™ bacterial strain has modifications to increase sensitivity to genotoxins with (a) increased sensitivity for even limited damage, (b) modified outer membrane of the cell to increase permeability to exogenous materials, and (c) production of a color change on addition to chromogenic substrate (ONPG), which is a quantitative measure of genotoxic damage to bacterial DNA.
Rehydration of Dried Bacteria and Culture Growth: The bacteria were rehydrated and incubated at 37° C. for 16-18 hours. OD600 of the overnight culture should be 0.5 or at least above 0.1 at 600 nm.
Sample Preparation and Plate Setup: The dimer compounds were dissolved in DMSO. All dilution and controls were made in the solvent of 10% DMSO in sterile 0.85% saline. The pH of the compounds was adjusted to 7.0±0.2 before incubation with bacteria to facilitate bacterial growth and prevent degradation of ONPG later in the assay. The solutions of hydrochloric acid and sodium hydroxide were used to adjust pH with minimal addition volumes to prevent excessive sample dilution. Six samples were run at 4 dilutions at a time.
Preliminary Dilution of Bacteria: The overnight bacterial culture was diluted to 50% by performing a reinoculation with 5 mL of overnight growth and 5 mL of fresh Growth media. The reinoculated bacteria was inoculated for 1.5 hours at 37° C. The OD600 should be approximately 80% of the reading from overnight growth or slightly higher.
Preparation of Plate A: Distilled water (180 μL) was added to all wells, except for rows A to F, columns 1 to 3 and row H, columns 1 to 6. Rows A to F are used for 6 compounds per plate. The test compounds (360 μL) were added to the first three wells (three replicates) of the same microplate, such that wells 1-3 were a triplicate set of the highest concertation of test compound (360 μL). Wells 4-12 each contained 180 μL of distilled water. For dilution, half of the contents (180 μL) from wells 1-3 was transferred to wells 4-6 which makes a second triplicate set. For a third dilution, half of the contents from wells 4-6 were transferred to 7-9, and for the fourth triplicate set, half of the contents from wells 7-9 was transferred to 10-12. […]
For data set [10], the system named is Candida albicans (ATCC 18804). In words: Antifungal broth microdilution MIC assay. The format is cell-based. The note with it: for MIC: Candida albicans, ATCC18804, C. albicans, read-out: MIC (antifungal growth inhibition). As to the method:
Synthesized compounds were tested for antifungal activity towards the fungus strain, Candida albicans. […] Different concentrations of the compounds were tested for the exact same number of fungi, and the growth is monitored with time. MIC was determined by using the broth microdilution assay. Fungus strain, C. albicans was purchased from ATCC (ID: 18804) for the studies. […] This solution was used to make a working solution by preparing a 1:50 dilution, followed by a 1:20 dilution, with RPMI 1640 medium to obtain 2× test inoculum. The 2× inoculum is diluted 1:1 to achieve the final inoculum size (0.5×10^3 to 2.5×10^3 cells per mL). RPMI 1640 medium was used with L-glutamine and phenol red as a pH indicator but without bicarbonate and a glucose concentration of 0.2%. […] All plates were then read visually under normal laboratory lighting using a mirror viewer. Wells were scored for the growth compared to that of the drug free control well. Plates were read at 530 nm with subtraction of the blank from the reading of each well. Turbidity (OD) increases as the fungus grows over time.

The subject of data set [11] is gram positive and negative bacteria. In words: Antibacterial testing against gram positive and negative bacteria. The format is cell-based. How it is done:
In addition to the harmaline dimers compounds, other bicyclic indole compounds (203, 233, 476/6 and 504/6,) were also tested against gram positive and negative bacteria. Particularly, the indole ethyl urea molecules 203, 233 and the tryptamide dimer molecules 476/6, 504/6, as shown below, were tested.

The test system of data set [12] is VREF (ATCC 51299). Description: Minimum bactericidal concentration (MBC) assay, VREF. Format: cell-based, Enterococcus faecalis. The note with it: Enterococcus faecalis, ATCC51299, read-out: MBC (bactericidal activity). As to the method:
as §1

[13] abbreviates: ATCC29213, read-out: MIC (bacterial growth inhibition), S. aureus, time not given.
[14] abbreviates: ATCC29213, 24 h, read-out: MIC (bacterial growth inhibition), S. aureus, up to 24 hours.
The mark [15] stands for this setting: ATCC25922, read-out: MIC (bacterial growth inhibition), E. coli.
Where [16] appears, read: ATCC29213, read-out: MIC (bacterial growth inhibition).

Values after ≈ are worked out from the molar mass of the structure shown. Values joined by “and” are separate entries in the source; they are usually repeats but may differ in a detail not shown here. Equal values may be shown once. Where a name gives a salt, the structure may show the parent alone. Read-outs that look alike come from different tables or passages of the source.

Usually MIC stands for the least concentration at which growth counts as inhibited. For orientation: MBC means the smallest concentration meeting the test's criterion for killing.

On to `COc1ccc2c3c([nH]c2c1)C(/C=C/c1cc(Cl)ccc1N)=NCC3` [GK350], for which, in [1] (E. coli), the “concentration showing ~50% growth inhibition” value was determined as 1.5 µg/mL. In addition, in data set [2] (setting [13]), the MIC turned out to be 25 mg/L (≈ 71.1 µM).
As for `COc1ccc2c3c([nH]c2c1)C(CC(CC1=NCCc2c1[nH]c1cc(OC)ccc21)c1ccccn1)=NCC3` [GK517.2], the MBC in [3] (MRSA, read-out: MBC) is above 129 mg/L; in [3] (MRSA, read-out: MRSA-MBC), above 250 µM; in [4] (S. aureus) it was above 129 mg/L. Also, in [1] (E. coli), the “MIC (bacterial growth inhibition)” value is reported as “no activity was observed”. The MIC in [2] (setting [14]) and in data set [5] (24 h) was 64.7 mg/L (≈ 125 µM) throughout.
Take `COc1ccc2c3c([nH]c2c1)C(CC(CC1=NCCc2c1[nH]c1cc(OC)ccc21)c1c[nH]c2ccc(C(=O)O)cc12)=NCC3` [GK599.HCl]: the “concentration at which activity is shown” value amounted to 50 µg/mL in data set [1] (E. coli), 12.5 µg/mL in data set [2] and 12.5 µg/mL in data set [5] (MRSA).
Consider `COc1ccc2c3c([nH]c2c1)C(CC(CC1=NCCc2c1[nH]c1cc(OC)ccc21)c1c[nH]c2ccc(C#N)cc12)=NCC3` [GK580, 3-(1,3-bis(7-methoxy-4,9-dihydro-3H-pyrido[3,4-b]indol-1-yl)propan-2-yl)-1H-indole-5-carbonitrile], for which the minimal bactericidal concentration (MBC) in data set [3] (MRSA, read-out: MBC) was 7 mg/L; in [4] (S. aureus) it was 11 mg/L (≈ 18.9 µM). The minimal inhibitory concentration (MIC) was 44 mg/L (≈ 75.8 µM) in data set [6]; 12.5 mg/L (≈ 21.5 µM) in data set [1] (setting [15]); above 88 mg/L in [7]; 5.5 mg/L (≈ 9.47 µM) in data set [2] (setting [13]); 12.2 mg/L (≈ 21.1 µM) in data set [10] (after 24 hours of incubation); 12.2 mg/L (≈ 21.1 µM) in [10] (after 48 hours of incubation). For the same compound, the minimum inhibitory concentration (MIC) in [5] is 3.5 mg/L (≈ 6.03 µM). The “MBC (kills bacteria)” value in data set [8] was above 88 mg/L. Also, the “MIC (bacterial growth inhibition)” value in data set [2] (time not given) was determined as 3.5 mg/L (≈ 6.03 µM). Also, the “genotoxic concentration (no genotoxicity up to)” value in [9] (S9 not stated) was above 30 µg/mL. For the same compound, the “concentration inhibiting fungal growth” value in data set [10] (time not stated) came out at 12.5 µg/mL.
As to `COc1ccc2c3c([nH]c2c1)C(CC(CC1=NCCc2c1[nH]c1cc(OC)ccc21)c1c[nH]c2cccc([N+](=O)[O-])c12)=NCC3` [GK600], the results for the “MIC (bacterial growth inhibition)” value in data set [1] (E. coli) and in [2] (time not given) were 6.25 mg/L (≈ 10.4 µM) and 3.5 mg/L (≈ 5.83 µM), respectively. Further, the MIC in data set [1] (setting [15]) came out at 12.5 mg/L (≈ 20.8 µM); in data set [2] (setting [13]), 3.1 mg/L (≈ 5.16 µM); in [5], 2.75 mg/L (≈ 4.58 µM).
With `COc1ccc2c3c([nH]c2c1)C(/C=C/c1cc(Br)ccc1N)=NCC3` [GK395], the “concentration showing ~50% growth inhibition” value in [1] (E. coli) is 3.5 µg/mL. Further, the MIC in data set [2] (setting [13]) came to 25 mg/L (≈ 63.1 µM); in data set [10] (after 48 hours of incubation) it was 50 mg/L (≈ 126 µM).
Take `COc1ccc2c3c([nH]c2c1)C(CC(CC1=NCCc2c1[nH]c1cc(OC)ccc21)C1CC1)=NCC3` [GK480]: the “concentration at which activity is shown” value in data set [1] (E. coli) was 50 µg/mL; in [2] it was 3.25 µg/mL.
Regarding `COc1ccc2c3c([nH]c2c1)C(/C=C\c1cc(Br)ccc1/N=C/c1cc(Br)ccc1N)=NCC3` [GK578, 4-bromo-2-((E)-((4-bromo-2-((Z)-2-(7-methoxy-4,9-dihydro-3H-pyrido[3,4-b]indol-1-yl)vinyl)phenyl)imino)methyl)aniline], the “concentration showing significant reduction in growth” value in [1] (E. coli) stood at 3.12 µg/mL. Also, the inhibition in growth in data set [1] (incubated with E. coli for 10-75 hrs) is recorded as 50%.
Take `COc1ccc2c3c([nH]c2c1)C(C)=NCC3` [Harmaline, reference compound]: the MIC was 707 µg/mL and 3300 µM in data set [1] (ATCC25922, read-out: MIC (bacterial growth inhibition)); 707 µg/mL and 3300 µM in data set [2] (setting [16]).
On to `COc1ccc2c3c([nH]c2c1)C(/C=C/c1cc(C(=O)O)ccc1N)=NCC3` [GK360], for which the “concentration showing ~50% growth inhibition” value in data set [1] (E. coli) turned out to be 0.78 µg/mL. For the same compound, the minimal inhibitory concentration (MIC) stood at 12.5 mg/L (≈ 34.6 µM) in data set [2] (setting [13]) and 50 mg/L (≈ 138 µM) in data set [10] (after 24 hours of incubation).
As to `COc1ccc2[nH]cc(CCNC(N)=O)c2c1` [Compound 233], the bacteriostatic/bactericidal activity entry in [11] is reported as “no bacteriostatic/bactericidal activity observed”.
For the compound `COc1ccc2c3c([nH]c2c1)C(CC(CC1=NCCc2c1[nH]c1cc(OC)ccc21)c1c[nH]c2ccc(C(=O)O)cc12)=NCC3` [GK599], the “concentration at which activity is shown” value in [1] (E. coli) worked out at 100 µg/mL; in [2] it was 6.25 µg/mL.
`COc1ccc2c(CCNC(=O)CC(C)(C)CC(=O)NCCc3c[nH]c4cc(OC)ccc34)c[nH]c2c1` [504/6]: the bacteriostatic/bactericidal activity entry in data set [11] is “no bacteriostatic/bactericidal activity observed”.
The same measure, in the same setting: the same measure for `NC(=O)NCCc1c[nH]c2ccccc12` [Compound 203]: “no bacteriostatic/bactericidal activity observed”.
On to `COc1ccc2c3c([nH]c2c1)C(CC(CC1=NCCc2c1[nH]c1cc(OC)ccc21)c1ccncc1)=NCC3` [GK517.4], for which the MBC in [3] (MRSA, read-out: MBC) is above 129 mg/L; in [3] (MRSA, read-out: MRSA-MBC) it was above 250 µM; in data set [4] (S. aureus), 64.7 mg/L (≈ 125 µM). Further, the “MIC (bacterial growth inhibition)” value in data set [1] (E. coli) is on record as “no activity was observed”. For the same compound, the minimum inhibitory concentration (MIC) in [2] (setting [14]) and in data set [5] (24 h) was 64.7 mg/L (≈ 125 µM) each time.
Regarding `COc1ccc2c(CCNC(=O)CCCC(=O)NCCc3c[nH]c4cc(OC)ccc34)c[nH]c2c1` [476/6], in data set [11], the bacteriostatic/bactericidal activity entry is listed as “no bacteriostatic/bactericidal activity observed”.
With `COc1ccc2c3c([nH]c2c1)C(CC(CC1=NCCc2c1[nH]c1cc(OC)ccc21)c1ccc(C(F)(F)F)nc1)=NCC3` [GK585], the minimum bactericidal concentration (MBC) in [3] (MRSA, read-out: MBC) is above 146 mg/L; in data set [3] (MRSA, read-out: MRSA-MBC), above 250 µM; in data set [4] (S. aureus) it was above 146 mg/L. The “MIC (bacterial growth inhibition)” value in [1] (E. coli) is recorded as “No bacteriostatic or bactericidal activities were observed”. The MIC in data set [2] (setting [13]) and in data set [5] was 73.2 mg/L (≈ 125 µM) throughout. Besides, the genotoxicity entry in data set [9] (at 12.5 and 25 μM) is listed as “no genotoxicity”; in data set [9] (at 50 and 100 μM), “interfered with testing protocols”.
With `CN[C@H](CC(C)C)C(=O)N[C@H]1C(=O)N[C@@H](CC(N)=O)C(=O)N[C@H]2C(=O)N[C@H]3C(=O)N[C@H](C(=O)N[C@H](C(=O)O)c4cc(O)cc(O)c4-c4cc3ccc4O)[C@H](O)c3ccc(c(Cl)c3)Oc3cc2cc(c3O[C@@H]2O[C@H](CO)[C@@H](O)[C@H](O)[C@H]2O[C@H]2C[C@](C)(N)[C@H](O)[C@H](C)O2)Oc2ccc(cc2Cl)[C@H]1O` [Vancomycin, reference compound], the figures for the MBC in data set [3], in [4] and in data set [12] were 1.56 mg/L, 1.56 mg/L (≈ 1.08 µM) and above 100 mg/L, respectively. The MIC was 3.12 mg/L (≈ 2.15 µM) in data set [6], 25 mg/L (≈ 17.3 µM) in data set [7], 1.56 mg/L (≈ 1.08 µM) in data set [2] (setting [16]) and 1.56 mg/L (≈ 1.08 µM) in [5]. In addition, in data set [8], the “MBC (kills bacteria)” value is 6.25 mg/L (≈ 4.31 µM).
With `COc1ccc2c3c([nH]c2c1)C(/C=C/c1ccccc1N)=NCC3` [GK317], in data set [1] (E. coli), the “MIC (bacterial growth inhibition)” value is given as “didn't show any activity”. The MIC in data set [2] (setting [13]) was 100 mg/L (≈ 315 µM).

Source of the values: patent US20240002405A1, “ANTIMICROBIAL COMPOUNDS, SYNTHESIS METHODS, AND USES THEREOF” (Ankh Life Sciences Limited, priority 2022, published 2024).
